# Measured values: article PMC6196658, “Activity of Thioallyl Compounds From Garlic Against Giardia duodenalis Trophozoites and in Experimental Giardiasis” (Frontiers in Cellular and Infection Microbiology, 2018)
# Several values for one entry are separate records, joined by “and”; a condition that tells them apart may be missing. Equal values may be shown once.
# Tests used:
# [1] = test system: Entamoeba histolytica; set-up: method as in Ankri et al., 1997; settings: ref Ankri et al., 1997; cited from earlier work
# [2] = test system: G. duodenalis trophozoites; test: Efficacy in experimental giardiasis; settings: for cure rate (gerbils without trophozoites): read day 13
# Protocol: Eighty male Mongolian gerbils (M. unguiculatus) 6–10 weeks old, weighted 45–60 g and sentinel-checked gerbils free of intestinal parasites were kept in individual cages and distributed in 12 groups of 6 animals per treatment and experimental infections were performed as described elsewhere (Argüello-García and Ortega-Pierres, [1997]). In brief, animals were inoculated intragastrically with 1 × 10^6 G. duodenalis trophozoites in 500 μl sterile PBS per os using gavage under ether anesthesia. Control animals received 500 μl sterile PBS each. […] As additional control, one group of animals received MTZ (38.4 mg/kg at single or double dose). […] Treatment efficacy was evaluated by determining the presence or absence of trophozoites in intestinal contents of control and treated gerbils at day 13 post-infection. For this, gerbils were euthanized by an intraperitoneal injection of pentobarbital at a dose of 150 mg/kg to minimize stress and to reduce suffering, then a 10 cm-long section of intestine (from stomach ending, equivalent to nearly the entire small intestine) was excised after laparotomy, and it was longitudinally opened and rinsed in 20 mL PBS at 4°C for 20 min under shaking (720 rpm, Heidolph^TM rotatory shaker) to determine trophozoites number after parasite detachment from microvilli. Supernatant was collected and centrifuged at 750 × g for 10 min at 4°C, cell pellet was resuspended in 1 mL PBS and trophozoites were counted using a haemocytometer. Gerbils were scored as cured if no trophozoites were recovered from infected animals.
# [3] = test system: G. duodenalis trophozoites; test: ROS formation, H2DCFDA flow cytometry; type: cell-based, Giardia duodenalis; settings: 1.2 mM (twice MLC), 24 h
# Protocol: (§1) The identification and quantitative determinations of trophozoites were carried out as follows: (a) apoptosis or necrosis were determined using anti-annexin V-fluorescein isothiocyanate (FITC) antibodies or PI as respective markers, (b) oxidative stress was determined by formation of reactive oxygen species (ROS) with the fluorescent ROS-complexing agent 5-(and 6)-carboxy 2′7′-dichlorodihydrofluorescein diacetate (H2DCFDA), and (c) determination of trophozoites cell cycle stages (G1, S, G2, and G2/M) after exposure to ALC or to a control drug (albendazole, ABZ) was carried out as previously described (Martínez-Espinosa et al., [2015]). In all these assays 20,000 cells per sample were recorded.
# [4] = test system: G. duodenalis trophozoites; test: In vitro susceptibility, subculture in liquid medium (SCLM); type: cell-based, Giardia duodenalis (WB strain); settings: SCLM; for IC50: Giardia duodenalis
# [5] = test system: G. duodenalis trophozoites; test: Cell cycle stages, PI flow cytometry; type: cell-based, Giardia duodenalis; settings: 24 h
# Protocol: as §1
# [6] = test system: Babesia microti; set-up: method as in Salama et al., 2014; settings: mice, 30 mg/kg orally for 5 days; ref Salama et al., 2014; cited from earlier work
# [7] = target: T1, giardipain-1 (Giardia intestinalis, UniProt P92132); test: Inhibition of cytolytic effect of giardipain-1 on IEC6 cell monolayers; type: cell-based, Giardia duodenalis; settings: 5.3 mM pre-incubated 30 min with giardipain-1 16 μg/mL; 100 min
# T1 construct: the 25 kDa band that contains the processed form of the cathepsin B-like protease named as giardipain-1; endogenous in cells
# T1 sequence (P92132 75-300): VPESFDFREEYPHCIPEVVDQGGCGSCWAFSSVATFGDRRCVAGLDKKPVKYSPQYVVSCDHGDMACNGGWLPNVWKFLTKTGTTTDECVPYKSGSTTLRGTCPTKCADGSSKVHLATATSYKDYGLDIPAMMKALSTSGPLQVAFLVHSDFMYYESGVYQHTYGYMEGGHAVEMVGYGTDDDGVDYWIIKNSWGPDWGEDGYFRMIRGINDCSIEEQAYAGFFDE
# Protocol: Additional assays were carried out using the MLCs of TACs (without giardipain-1) previously obtained in trophozoite cultures to monitor their toxicity. These solutions were added to monolayers of the intestinal cell line IEC6 grown in 1 cm^2-microwells and incubated for 100 min at 37°C. After incubation, supernatants were discarded and monolayers were fixed with 2% paraformaldehyde in PBS. The effects of TACs and E64 on the cytolytic effect of giardipain-1 were evaluated by light microscopy using Nomarski optics (Axioskop 40, Zeiss).
# [8] = test system: G. duodenalis trophozoites; test: In vitro susceptibility, trypan blue exclusion (TBE); type: cell-based, Giardia duodenalis (WB strain); settings: 24 h exposure
# Protocol: G. duodenalis trophozoites from the WB strain (ATCC # 30957) were axenically cultured in modified Diamond's TYI-S-33 medium (Keister, [1983]) without bile at 37°C. Cell harvests were carried out by chilling flasks at the log phase of growth reached after 72–96 h routine subcultures. Detached trophozoites were either directly counted in a haemocytometer or washed 3 times with phosphate buffer saline (PBS) prior to counting and the cell number was adjusted as required in the assays.
# When complete TYI-S-33 medium (final cysteine concentration = 12.4 mM) was used, it was no older than 10 days to avoid cysteine oxidation. […] Parasites were harvested and counted and trophozoite's viability was determined by physiological methods to determine the growth capacity of trophozoites after drug exposure (subculture in liquid medium SCLM)] or trophozoite and membrane integrity [direct cell count (DCC) and trypan blue exclusion (TBE), respectively]. […] All these protocols have been described elsewhere (Argüello-García et al., [2004]) except that DCC values were calculated from total cell numbers of compound-exposed trophozoites divided by the initial trophozoites' inoculum (1 × 10^6) and TBE was performed by incubating PBS-washed parasites in a trypan blue solution (0.4% [w/v] final concentration) for 5 min at room temperature followed by microscopic count of “stained” (non-viable) parasites. […]
# [9] = mouse, no reference given; cited from earlier work
# [10] = test system: G. duodenalis trophozoites; test: In vitro susceptibility, MTT reduction; type: cell-based, Giardia duodenalis (WB strain)
compound,measurement,setting,value
"C=CCS[S+]([O-])CC=C (stereo not drawn) [ALC, diallyl thiosulfinate]",IC60,[1],500 µM
same,cure rate (gerbils without trophozoites),[2]; 35 mg/kg single dose intragastric day 10 p.i.,3 out of 6
same,cure rate (gerbils without trophozoites),[2]; 70 mg/kg single dose intragastric day 10 p.i.,5 out of 6 and 5/6
same,cure rate (gerbils without trophozoites),[2]; 138 mg/kg single dose intragastric day 10 p.i.,6 out of 6 and 6/6
same,cure rate (gerbils without trophozoites),[2]; 276 mg/kg single dose intragastric day 10 p.i.,5 out of 6
same,intestinal parasite numbers,"[2]; increasing single doses 35-276 mg/kg, day 13 p.i.",progressive decrease in parasite numbers
same,cells positive for ROS (total),[3],0.75%
same,IC50,"[4]; 24 h exposure (Figure 6B), read-out: IC50 ± SD",0.322 ± 0.023 mM
same,IC50,"[4]; 24 h exposure, read-out: IC50 (mM) ±SD",0.32 ± 0.02 mM
same,MLC (mM) ±SD,[4]; 24 h exposure,0.6 mM
same,concentration at which parasite replication was suppressed,[4]; 24 h exposure,600 µM
same,MLC (mM) ±SD,"[4]; 24 h exposure, listed as Allicin",0.600 ± 0.016 mM
same,cells at G1 phase,[5]; 0.6 mM,7.4% and 7.43%
same,cells at G2/M phase,[5]; 0.6 mM,4.4% and 4.44%
same,cells at G2 phase,[5]; 0.6 mM,61.0% and 61.09%
same,cells at S phase,[5]; 0.6 mM,27.03%
same,cells at G1 phase,[5]; 1.2 mM,2.2% and 2.22%
same,cells at G2/M phase,[5]; 1.2 mM,5.7% and 5.72%
same,cells at G2 phase,[5]; 1.2 mM,75.53%
same,cells at S phase,[5]; 1.2 mM,5.7% and 5.72%
same,parasitemia,[6],significantly reduced parasitemia
same,effect on giardipain-1 cytopathic damage in IEC6 monolayers,[7],noticeably blocked these effects
same,MLC (mM) ±SD,[8],1.12 mM and 1.127 ± 0.05 mM
same,IC50,[8]; Giardia duodenalis,405 ± 38 µM
same,oral lethality,[9],300 mg/kg
same,IC50,"[10]; Giardia duodenalis, MTT assay, value as quoted in Discussion",686 µM
same,MLC (mM) ±SD,"[10]; MTT, 24 h exposure",1.490 ± 0.025 mM
